ChEMBL document CHEMBL1629586, “Preparation and stability of voriconazole eye drop solution” (Antimicrob Agents Chemother, 2009)

Experiment: Chemical stability of the compound at pH 7 after 30 days
Format: physicochemical
Details: buffer, pH 7, 720 h

In the case of `C[C@@H](c1ncncc1F)[C@](O)(Cn1cncn1)c1ccc(F)cc1F` [VORICONAZOLE], the Stability is reported as “Stable”.
